Data as given in ChEMBL document CHEMBL4507266, “Data for DCP probe BAY-784” (2021).

What was measured:
[1] = tested on: Tyrosine-protein kinase ABL1 (Homo sapiens), P00519 [F317I]; settings: Compound concentration 1000.0 nM
[2] = tested on: Tyrosine-protein kinase ABL1 (Homo sapiens), P00519 [F317L]; settings: Compound concentration 1000.0 nM
[3] = tested on: Tyrosine-protein kinase ABL1 (Homo sapiens), P00519 [H396P]; settings: Compound concentration 1000.0 nM
[4] = target: Activin receptor type-1-like (Homo sapiens) (UniProt P37023); settings: Compound concentration 1000.0 nM
[5] = target: Atypical kinase COQ8A, mitochondrial (Homo sapiens) (UniProt Q8NI60); settings: Compound concentration 1000.0 nM
[6] = target: Ankyrin repeat and protein kinase domain-containing protein 1 (Homo sapiens) (UniProt Q8NFD2); settings: Compound concentration 1000.0 nM
[7] = target: Tyrosine-protein kinase BTK (Homo sapiens) (UniProt Q06187); settings: Compound concentration 1000.0 nM
[8] = target: Cyclin-dependent kinase 11A (Homo sapiens) (UniProt Q9UQ88); settings: Compound concentration 1000.0 nM
[9] = target: Tyrosine-protein kinase CSK (Homo sapiens) (UniProt P41240); settings: Compound concentration 1000.0 nM
[10] = target: Casein kinase I isoform alpha-like (Homo sapiens) (UniProt Q8N752); settings: Compound concentration 1000.0 nM
[11] = target: Casein kinase II subunit alpha' (Homo sapiens) (UniProt P19784); settings: Compound concentration 1000.0 nM
[12] = target: Epithelial discoidin domain-containing receptor 1 (Homo sapiens) (UniProt Q08345); settings: Compound concentration 1000.0 nM
[13] = target: Serine/threonine-protein kinase 17B (Homo sapiens) (UniProt O94768); settings: Compound concentration 1000.0 nM
[14] = target: Ephrin type-A receptor 3 (Homo sapiens) (UniProt P29320); settings: Compound concentration 1000.0 nM
[15] = target: Ephrin type-A receptor 7 (Homo sapiens) (UniProt Q15375); settings: Compound concentration 1000.0 nM
[16] = target: Ephrin type-B receptor 1 (Homo sapiens) (UniProt P54762); settings: Compound concentration 1000.0 nM
[17] = target: Ephrin type-B receptor 2 (Homo sapiens) (UniProt P29323); settings: Compound concentration 1000.0 nM
[18] = target: Receptor tyrosine-protein kinase erbB-4 (Homo sapiens) (UniProt Q15303); settings: Compound concentration 1000.0 nM
[19] = target: Mitogen-activated protein kinase 3 (Homo sapiens) (UniProt P27361); settings: Compound concentration 1000.0 nM
[20] = target: Mitogen-activated protein kinase 6 (Homo sapiens) (UniProt Q16659); settings: Compound concentration 1000.0 nM
[21] = target: Receptor-type tyrosine-protein kinase FLT3 (Homo sapiens) (UniProt P36888); settings: Compound concentration 1000.0 nM
[22] = tested on: Receptor-type tyrosine-protein kinase FLT3 (Homo sapiens), P36888 [UNDEFINED MUTATION]; settings: Compound concentration 1000.0 nM
[23] = target: Interleukin-1 receptor-associated kinase 4 (Homo sapiens) (UniProt Q9NWZ3); settings: Compound concentration 1000.0 nM
[24] = target: Serine/threonine-protein kinase LATS1 (Homo sapiens) (UniProt O95835); settings: Compound concentration 1000.0 nM
[25] = target: Serine/threonine-protein kinase 24 (Homo sapiens) (UniProt Q9Y6E0); settings: Compound concentration 1000.0 nM
[26] = target: Serine/threonine-protein kinase NIM1 (Homo sapiens) (UniProt Q8IY84); settings: Compound concentration 1000.0 nM
[27] = target: Serine/threonine-protein kinase OSR1 (Homo sapiens) (UniProt O95747); settings: Compound concentration 1000.0 nM
[28] = target: Phosphorylase b kinase regulatory subunit alpha, liver isoform (Homo sapiens) (UniProt P46019); settings: Compound concentration 1000.0 nM
[29] = target: Phosphatidylinositol 3-kinase C2 domain-containing subunit gamma (Homo sapiens) (UniProt O75747); settings: Compound concentration 1000.0 nM
[30] = target: Protein kinase C delta type (Homo sapiens) (UniProt Q05655); settings: Compound concentration 1000.0 nM
[31] = target: Protein kinase C theta type (Homo sapiens) (UniProt Q04759); settings: Compound concentration 1000.0 nM
[32] = target: cGMP-dependent protein kinase 1 (Homo sapiens) (UniProt Q13976); settings: Compound concentration 1000.0 nM
[33] = target: RAF proto-oncogene serine/threonine-protein kinase (Homo sapiens) (UniProt P04049); settings: Compound concentration 1000.0 nM
[34] = target: Ribosomal protein S6 kinase alpha-1 (Homo sapiens) (UniProt Q15418); settings: Compound concentration 1000.0 nM
[35] = target: Ribosomal protein S6 kinase alpha-6 (Homo sapiens) (UniProt Q9UK32); settings: Compound concentration 1000.0 nM
[36] = target: Serine/threonine-protein kinase TAO3 (Homo sapiens) (UniProt Q9H2K8); settings: Compound concentration 1000.0 nM
[37] = target: Serine/threonine-protein kinase TBK1 (Homo sapiens) (UniProt Q9UHD2); settings: Compound concentration 1000.0 nM
[38] = target: Serine/threonine-protein kinase tousled-like 1 (Homo sapiens) (UniProt Q9UKI8); settings: Compound concentration 1000.0 nM
[39] = target: Serine/threonine-protein kinase tousled-like 2 (Homo sapiens) (UniProt Q86UE8); settings: Compound concentration 1000.0 nM
[40] = target: High affinity nerve growth factor receptor (Homo sapiens) (UniProt P04629); settings: Compound concentration 1000.0 nM
[41] = target: Non-receptor tyrosine-protein kinase TYK2 (Homo sapiens) (UniProt P29597); settings: Compound concentration 1000.0 nM
[42] = target: Serine/threonine-protein kinase WNK2 (Homo sapiens) (UniProt Q9Y3S1); settings: Compound concentration 1000.0 nM
[43] = target: Sodium-dependent serotonin transporter (Homo sapiens) (UniProt P31645); settings: Compound concentration 10.0 uM
[44] = target: Histamine H2 receptor (Homo sapiens) (UniProt P25021); settings: Compound concentration 10.0 uM
[45] = target: Sigma intracellular receptor 2 (Homo sapiens, UniProt Q5BJF2); settings: Compound concentration 10.0 uM
Sigma intracellular receptor 2, sequence (Q5BJF2 whole entry): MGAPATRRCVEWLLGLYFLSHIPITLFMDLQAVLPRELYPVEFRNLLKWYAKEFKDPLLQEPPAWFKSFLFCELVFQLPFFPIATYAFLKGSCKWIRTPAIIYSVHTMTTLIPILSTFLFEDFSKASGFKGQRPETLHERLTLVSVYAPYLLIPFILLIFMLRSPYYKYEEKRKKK

Ribosomal protein S6 kinase alpha-6 (Homo sapiens), sequence (Q9UK32 whole entry): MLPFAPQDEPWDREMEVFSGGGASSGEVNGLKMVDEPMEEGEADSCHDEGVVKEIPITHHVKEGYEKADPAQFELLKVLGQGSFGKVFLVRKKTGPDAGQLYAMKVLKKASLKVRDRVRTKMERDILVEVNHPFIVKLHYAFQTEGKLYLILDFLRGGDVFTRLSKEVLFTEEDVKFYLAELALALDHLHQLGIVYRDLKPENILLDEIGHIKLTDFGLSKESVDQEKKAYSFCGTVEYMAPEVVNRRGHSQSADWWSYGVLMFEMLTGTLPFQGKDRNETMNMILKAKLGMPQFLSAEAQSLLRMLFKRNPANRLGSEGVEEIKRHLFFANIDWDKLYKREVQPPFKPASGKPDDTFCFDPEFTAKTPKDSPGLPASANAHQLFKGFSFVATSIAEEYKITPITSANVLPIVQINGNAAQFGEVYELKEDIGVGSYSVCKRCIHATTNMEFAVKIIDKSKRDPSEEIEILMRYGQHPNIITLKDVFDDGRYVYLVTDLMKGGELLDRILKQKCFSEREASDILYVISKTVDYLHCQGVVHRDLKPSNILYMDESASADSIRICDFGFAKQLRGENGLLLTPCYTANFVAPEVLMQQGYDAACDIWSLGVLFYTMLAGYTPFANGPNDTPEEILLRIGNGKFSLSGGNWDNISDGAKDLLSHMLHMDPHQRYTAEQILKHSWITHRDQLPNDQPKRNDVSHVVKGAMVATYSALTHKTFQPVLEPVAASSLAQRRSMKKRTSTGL
Casein kinase I isoform alpha-like (Homo sapiens), sequence (Q8N752 whole entry, canonical isoform): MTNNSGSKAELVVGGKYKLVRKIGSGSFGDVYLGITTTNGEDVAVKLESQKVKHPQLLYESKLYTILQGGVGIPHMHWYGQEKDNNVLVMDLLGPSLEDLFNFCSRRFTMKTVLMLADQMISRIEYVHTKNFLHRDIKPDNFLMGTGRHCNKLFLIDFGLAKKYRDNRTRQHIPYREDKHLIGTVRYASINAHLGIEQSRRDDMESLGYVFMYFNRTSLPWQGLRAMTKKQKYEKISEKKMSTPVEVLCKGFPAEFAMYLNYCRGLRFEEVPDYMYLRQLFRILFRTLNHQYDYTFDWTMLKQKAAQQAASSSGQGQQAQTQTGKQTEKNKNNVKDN
Receptor-type tyrosine-protein kinase FLT3 (Homo sapiens), sequence (P36888 whole entry): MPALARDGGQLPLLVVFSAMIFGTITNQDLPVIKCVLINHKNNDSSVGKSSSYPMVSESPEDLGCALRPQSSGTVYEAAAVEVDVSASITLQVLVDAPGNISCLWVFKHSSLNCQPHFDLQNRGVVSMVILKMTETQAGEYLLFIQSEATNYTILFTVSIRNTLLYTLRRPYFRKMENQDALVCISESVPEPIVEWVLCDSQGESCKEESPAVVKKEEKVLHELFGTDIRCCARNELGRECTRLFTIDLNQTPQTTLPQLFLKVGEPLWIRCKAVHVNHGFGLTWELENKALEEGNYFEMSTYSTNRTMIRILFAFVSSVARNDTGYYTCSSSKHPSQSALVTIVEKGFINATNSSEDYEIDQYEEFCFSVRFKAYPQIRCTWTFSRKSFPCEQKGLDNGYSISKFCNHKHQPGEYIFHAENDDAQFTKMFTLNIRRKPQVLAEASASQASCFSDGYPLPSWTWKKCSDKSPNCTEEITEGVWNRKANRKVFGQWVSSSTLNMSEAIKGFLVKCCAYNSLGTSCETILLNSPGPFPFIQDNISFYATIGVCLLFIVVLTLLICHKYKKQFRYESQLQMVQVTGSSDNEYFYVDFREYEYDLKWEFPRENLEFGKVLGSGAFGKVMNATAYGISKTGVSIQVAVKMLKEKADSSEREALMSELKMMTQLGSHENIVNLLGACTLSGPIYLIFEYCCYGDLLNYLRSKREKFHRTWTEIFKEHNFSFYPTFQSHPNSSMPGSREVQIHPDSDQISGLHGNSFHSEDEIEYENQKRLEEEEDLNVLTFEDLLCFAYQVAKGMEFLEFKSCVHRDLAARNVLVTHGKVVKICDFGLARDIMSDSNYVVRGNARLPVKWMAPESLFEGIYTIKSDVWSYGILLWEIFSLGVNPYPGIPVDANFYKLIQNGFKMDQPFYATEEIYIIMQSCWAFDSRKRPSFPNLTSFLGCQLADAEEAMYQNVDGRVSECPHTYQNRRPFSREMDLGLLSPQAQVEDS
Receptor-type tyrosine-protein kinase FLT3 (Homo sapiens), P36888 [UNDEFINED MUTATION], sequence (P36888 whole entry, looked up, change not shown): as the sequence (P36888 whole entry) above
Serine/threonine-protein kinase OSR1 (Homo sapiens), sequence (O95747 2-527 limits assumed): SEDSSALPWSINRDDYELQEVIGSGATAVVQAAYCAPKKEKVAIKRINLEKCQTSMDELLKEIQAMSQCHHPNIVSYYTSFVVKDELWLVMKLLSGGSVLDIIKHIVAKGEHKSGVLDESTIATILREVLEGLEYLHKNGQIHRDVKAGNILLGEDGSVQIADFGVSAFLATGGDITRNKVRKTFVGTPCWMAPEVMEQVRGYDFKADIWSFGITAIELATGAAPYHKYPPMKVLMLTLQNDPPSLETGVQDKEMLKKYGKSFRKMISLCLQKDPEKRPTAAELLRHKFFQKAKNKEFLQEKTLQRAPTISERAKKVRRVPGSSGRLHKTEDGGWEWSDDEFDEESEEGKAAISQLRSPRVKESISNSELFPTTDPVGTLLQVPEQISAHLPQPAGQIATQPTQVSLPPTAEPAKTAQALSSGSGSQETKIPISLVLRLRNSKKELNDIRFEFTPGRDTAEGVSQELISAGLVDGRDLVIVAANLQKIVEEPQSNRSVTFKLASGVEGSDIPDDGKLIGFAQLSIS
Activin receptor type-1-like (Homo sapiens), sequence (P37023 whole entry): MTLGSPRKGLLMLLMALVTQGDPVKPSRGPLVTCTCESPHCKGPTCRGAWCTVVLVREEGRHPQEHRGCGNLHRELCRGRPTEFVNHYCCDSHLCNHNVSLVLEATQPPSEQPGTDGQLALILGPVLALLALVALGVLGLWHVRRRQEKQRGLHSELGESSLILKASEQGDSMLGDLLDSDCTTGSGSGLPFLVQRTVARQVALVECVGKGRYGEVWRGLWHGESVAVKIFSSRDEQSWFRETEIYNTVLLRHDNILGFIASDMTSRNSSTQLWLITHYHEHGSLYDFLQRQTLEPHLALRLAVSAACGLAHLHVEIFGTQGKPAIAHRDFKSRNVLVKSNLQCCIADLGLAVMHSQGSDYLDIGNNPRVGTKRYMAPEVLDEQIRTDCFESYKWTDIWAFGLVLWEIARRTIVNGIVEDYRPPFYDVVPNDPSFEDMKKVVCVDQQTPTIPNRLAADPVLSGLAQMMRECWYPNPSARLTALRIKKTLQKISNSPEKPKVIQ
High affinity nerve growth factor receptor (Homo sapiens), sequence (P04629 33-796 limits assumed): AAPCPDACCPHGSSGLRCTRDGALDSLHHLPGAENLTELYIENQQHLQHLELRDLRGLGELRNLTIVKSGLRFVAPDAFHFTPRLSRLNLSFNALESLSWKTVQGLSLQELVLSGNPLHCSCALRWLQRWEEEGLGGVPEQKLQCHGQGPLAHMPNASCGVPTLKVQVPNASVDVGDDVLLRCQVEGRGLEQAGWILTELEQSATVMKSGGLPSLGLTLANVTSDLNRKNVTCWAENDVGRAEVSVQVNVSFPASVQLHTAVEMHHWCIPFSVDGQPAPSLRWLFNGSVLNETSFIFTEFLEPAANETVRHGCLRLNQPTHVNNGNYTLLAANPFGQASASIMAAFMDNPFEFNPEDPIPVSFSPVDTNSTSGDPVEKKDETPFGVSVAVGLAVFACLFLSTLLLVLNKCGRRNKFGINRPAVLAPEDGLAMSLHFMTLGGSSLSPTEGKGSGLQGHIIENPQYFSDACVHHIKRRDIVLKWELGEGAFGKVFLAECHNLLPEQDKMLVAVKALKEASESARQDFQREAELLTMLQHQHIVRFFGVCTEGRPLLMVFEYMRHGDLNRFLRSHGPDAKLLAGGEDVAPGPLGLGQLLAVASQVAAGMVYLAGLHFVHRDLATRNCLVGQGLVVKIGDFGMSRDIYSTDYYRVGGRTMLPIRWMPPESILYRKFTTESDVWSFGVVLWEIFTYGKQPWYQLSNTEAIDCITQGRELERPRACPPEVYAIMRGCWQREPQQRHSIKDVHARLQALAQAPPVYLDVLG

O=C(NCc1ncc(C(F)(F)F)cc1Cl)c1ccc2c(c1)C1(CCS(=O)(=O)CC1)[C@@H](C1CC1)N2S(=O)(=O)c1ccc(F)cc1 [BAY-786]
inactive: residual activity [1] 80% | residual activity [2] 78% | residual activity [3] 100% | residual activity [4] 72% | residual activity [5] 90% | residual activity [6] 76% | residual activity [7] 73% | residual activity [8] 100% | residual activity [9] 96% | residual activity [10] 100% | residual activity [11] 72% | residual activity [12] 100% | residual activity [13] 87% | residual activity [14] 67% | residual activity [15] 100% | residual activity [16] 100% | residual activity [17] 100% | residual activity [18] 72% | residual activity [19] 83% | residual activity [20] 86% | residual activity [21] 100% | residual activity [22] 79% | residual activity [23] 90% | residual activity [24] 97% | residual activity [25] 100% | residual activity [26] 78% | residual activity [27] 71% | residual activity [28] 84% | residual activity [29] 75% | residual activity [30] 100% | residual activity [31] 95% | residual activity [32] 100% | residual activity [33] 100% | residual activity [34] 100% | residual activity [35] 100% | residual activity [36] 80% | residual activity [37] 84% | residual activity [38] 100% | residual activity [39] 100% | residual activity [40] 75% | residual activity [41] 73% | inhibition [43] -4.88% | inhibition [44] 16.5%
active: residual activity [42] 0% | inhibition [45] 52.7%

O=C(NCc1ncc(C(F)(F)F)cc1Cl)c1ccc2c(c1)C1(CCS(=O)(=O)CC1)[C@H](C1CC1)N2S(=O)(=O)c1ccc(F)cc1 [BAY-784]
active: inhibition [45] 74.9%
inactive: residual activity [1] 83% | residual activity [2] 88% | residual activity [3] 100% | residual activity [4] 98% | residual activity [5] 96% | residual activity [6] 89% | residual activity [7] 64% | residual activity [8] 100% | residual activity [9] 97% | residual activity [10] 95% | residual activity [11] 100% | residual activity [12] 100% | residual activity [13] 85% | residual activity [14] 100% | residual activity [15] 100% | residual activity [16] 100% | residual activity [17] 100% | residual activity [18] 70% | residual activity [19] 100% | residual activity [20] 87% | residual activity [21] 100% | residual activity [22] 100% | residual activity [23] 100% | residual activity [24] 91% | residual activity [25] 100% | residual activity [26] 83% | residual activity [27] 87% | residual activity [28] 96% | residual activity [29] 75% | residual activity [30] 100% | residual activity [31] 100% | residual activity [32] 100% | residual activity [33] 100% | residual activity [34] 99% | residual activity [35] 87% | residual activity [36] 99% | residual activity [37] 80% | residual activity [38] 96% | residual activity [39] 100% | residual activity [40] 80% | residual activity [41] 79% | residual activity [42] 97% | inhibition [43] -5.4% | inhibition [44] 14.6%
